Experimental data from patent publication US12673954B2 (BRISTOL-MYERS SQUIBB COMPANY, priority 2021, dated 2026).

What was measured:
[1] = system: IRF pathway, THP1-Dual™ cells; experiment: STING reporter assay in THP1-Dual cells, IRF pathway (Lucia luciferase, QUANTI-Luc); format: cell-based, human; details: Homo sapiens, THP1-Dual, 20 h, THP1-Dual cells, 10% human plasma, 20 hours; Lucia luciferase; 100% activation = 100 μM cGAMP; read-out: IRF (EC50 μM)
Procedure, shortened: (§1)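 THP-1-derived dual-reporter cells treated with serially diluted compounds (final top concentration 100 μM) for 20 h at 37° C. NF-κB read as SEAP via QUANTI-Blue at OD620; IRF read as Lucia luminescence via QUANTI-Luc after 5 min. 100% activation set by 100 μM cGAMP, baseline by DMSO.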

[2] = system: NF-κB pathway, THP1-Dual™ cells; experiment: STING reporter assay in THP1-Dual cells, NF-κB pathway (SEAP, QUANTI-Blue); format: cell-based, human; details: Homo sapiens, THP1-Dual, 20 h, THP1-Dual cells, 10% human plasma, 20 hours; SEAP; 100% activation = 100 μM cGAMP; read-out: NFkB (EC50 μM)
Procedure, shortened: as §1

Row | SMILES | EC50 [1] [µM] | EC50 [2] [µM]
1 | COC(=O)c1cc(O)cc2cc(CN3Cc4ccncc4C3=O)oc12 [EXAMPLE 104, Methyl 5-hydroxy-2-((3-oxo-1,3-dihydro-2H-pyrrolo[3,4-c]pyridin-2-yl)methyl)benzofuran-7-carboxylate] | 63 | 37
2 | COC(=O)c1cc(C#N)cc2cc(CNC(=O)c3cnn4cccnc34)oc12 [EXAMPLE 105, Methyl 5-cyano-2-((pyrazolo[1,5-a]pyrimidine-3-carboxamido)methyl)benzofuran-7-carboxylate] | 4.7 | 3.4
3 | COC(=O)c1cc(C(F)(F)F)cc2cc(CNC(=O)c3cnn4cccnc34)oc12 [EXAMPLE 106, Methyl 2-((pyrazolo[1,5-a]pyrimidine-3-carboxamido)methyl)-5-(trifluoromethyl) benzofuran-7-carboxylate] | 0.75 | 1.1
4 | COC(=O)c1c(F)ccc2cc(CNC(=O)c3cnn4cccnc34)oc12 [EXAMPLE 107, Methyl 6-fluoro-2-((pyrazolo[1,5-a]pyrimidine-3-carboxamido)methyl)benzofuran-7-carboxylate] | 1.4 | 2
5 | COC(=O)c1c(C)ccc2cc(CNC(=O)c3cnn4cccnc34)oc12 [EXAMPLE 108, Methyl 6-methyl-2-((pyrazolo[1,5-a]pyrimidine-3-carboxamido)methyl)benzofuran-7-carboxylate] | 21 | 31
6 | COC(=O)c1c(O)ccc2cc(CNC(=O)c3cnn4cccnc34)oc12 [EXAMPLE 109, Methyl 6-hydroxy-2-((pyrazolo[1,5-a]pyrimidine-3-carboxamido)methyl)benzofuran-7-carboxylate] | 0.9 | 1.1
7 | COC(=O)c1cc(F)cc2c(Cl)c(CNC(=O)c3cnn4cccnc34)oc12 [EXAMPLE 110, Methyl 3-chloro-5-fluoro-2-((pyrazolo[1,5-a]pyrimidine-3-carboxamido)methyl)benzofuran-7-carboxylate] | 0.22 | 0.27
8 | COC(=O)c1cc(F)cc2c(Cl)c([C@H](C)NC(=O)c3cnn4cccnc34)oc12 [EXAMPLE 111, Methyl (S)-3-chloro-5-fluoro-2-(1-(pyrazolo[1,5-a]pyrimidine-3-carboxamido)ethyl)benzofuran-7-carboxylate] | 1.2 | 1.4
9 | COC(=O)c1cc(Cl)cc2c(Cl)c(CNC(=O)c3cnn4cccnc34)oc12 [EXAMPLE 112, Methyl 3,5-dichloro-2-((pyrazolo[1,5-a]pyrimidine-3-carboxamido)methyl)benzofuran-7-carboxylate] | 0.2 | 0.26
10 | COC(=O)c1cc(Cl)cc2c(Cl)c(CNC(=O)c3cncc4cccnc34)oc12 [EXAMPLE 113, methyl 2-((1,6-naphthyridine-8-carboxamido)methyl)-3,5-dichlorobenzofuran-7-carboxylate] | 0.32 | 0.51
11 | COC(=O)c1cc(Cl)cc2c(Cl)c([C@H](C)NC(=O)c3cnn4cccnc34)oc12 [EXAMPLE 114, Methyl (S)-3,5-dichloro-2-(1-(pyrazolo[1,5-a]pyrimidine-3-carboxamido)ethyl)benzofuran-7-carboxylate] | 0.97 | 0.89
12 | COC(=O)c1cc(Cl)cc2c(C)c(CNC(=O)c3cnn4cccnc34)oc12 [EXAMPLE 115, Methyl 5-chloro-3-methyl-2-((pyrazolo[1,5-a]pyrimidine-3-carboxamido)methyl)benzofuran-7-carboxylate] | 0.6 | 0.82
13 | COC(=O)c1cc(Cl)cc2c(C(F)(F)F)c(CNC(=O)c3cnn4cccnc34)oc12 [EXAMPLE 116, Methyl 5-chloro-2-((pyrazolo[1,5-a]pyrimidine-3-carboxamido)methyl)-3-(trifluoromethyl)benzofuran-7-carboxylate] | 2.9 | 3.1
14 | COC(=O)c1cc(C)cc2c(Cl)c(CNC(=O)c3cnn4cccnc34)oc12 [EXAMPLE 117, Methyl 3-chloro-5-methyl-2-((pyrazolo[1,5-a]pyrimidine-3-carboxamido)methyl)benzofuran-7-carboxylate] | 0.2 | 0.28
15 | COC(=O)c1cc(C)cc2c(Cl)c(CNC(=O)c3cncc4cccnc34)oc12 [EXAMPLE 118, methyl 2-((1,6-naphthyridine-8-carboxamido)methyl)-3-chloro-5-methylbenzofuran-7-carboxylate] | 0.3 | 0.37
16 | COC(=O)c1cc(C)cc2c(Cl)c(CNC(=O)c3cnn4cc(C)cnc34)oc12 [EXAMPLE 119, Methyl 3-chloro-5-methyl-2-((6-methylpyrazolo[1,5-a]pyrimidine-3-carboxamido)methyl)benzofuran-7-carboxylate] | 2.6 | 2.6
17 | COC(=O)c1cc(C)cc2c(Br)c(CNC(=O)c3cnn4cccnc34)oc12 [EXAMPLE 121, Methyl 3-bromo-5-methyl-2-((pyrazolo[1,5-a]pyrimidine-3-carboxamido)methyl)benzofuran-7-carboxylate] | 0.4 | 0.28
18 | COC(=O)c1cc(C)cc2c(C)c(CNC(=O)c3cnn4cccnc34)oc12 [EXAMPLE 122, Methyl 3,5-dimethyl-2-((pyrazolo[1,5-a]pyrimidine-3-carboxamido)methyl)benzofuran-7-carboxylate] | 0.53 | 0.54
19 | COC(=O)c1cc(C)cc2c(C(F)(F)F)c(CNC(=O)c3cnn4cccnc34)oc12 [EXAMPLE 123, Methyl 5-methyl-2-((pyrazolo[1,5-a]pyrimidine-3-carboxamido)methyl)-3-(trifluoromethyl)benzofuran-7-carboxylate] | 4.3 | 5.9
20 | C=Cc1c(CNC(=O)c2cnn3cccnc23)oc2c(C(=O)OC)cc(C)cc12 [EXAMPLE 124, Methyl 5-methyl-2-((pyrazolo[1,5-a]pyrimidine-3-carboxamido)methyl)-3-vinylbenzofuran-7-carboxylate] | 5.7 | 6.7
21 | COC(=O)c1cc(F)c(F)c2cc(CN3CCc4ccncc4C3=O)oc12 [EXAMPLE 125, Methyl 4,5-difluoro-2-((1-oxo-3,4-dihydro-2,7-naphthyridin-2(1H)-yl)methyl)benzofuran-7-carboxylate] | 3.9 | 4.4
22 | COC(=O)c1c(F)c(F)cc2cc(CNC(=O)c3cnn4cccnc34)oc12 [EXAMPLE 126, Methyl 5,6-difluoro-2-((pyrazolo[1,5-a]pyrimidine-3-carboxamido)methyl)benzofuran-7-carboxylate] | 1.4 | 1.6
23 | COC(=O)c1c(O)c(Cl)cc2cc(CNC(=O)c3cnn4cccnc34)oc12 [EXAMPLE 127, Methyl 5-chloro-6-hydroxy-2-((pyrazolo[1,5-a]pyrimidine-3-carboxamido)methyl)benzofuran-7-carboxylate] | 4.7 | 5.6
24 | COc1ccn2ncc(C(=O)NCc3cc4cc(Cl)cc(C(=O)O)c4o3)c2n1 [EXAMPLE 139, 5-Chloro-2-((5-methoxypyrazolo[1,5-a]pyrimidine-3-carboxamido)methyl)benzofuran-7-carboxylic acid] | 90 | > 100
25 | Cc1cc(C(=O)O)c2oc(CNC(=O)c3cnn4cccnc34)cc2c1 [EXAMPLE 158, 5-methyl-2-((pyrazolo[1,5-a]pyrimidine-3-carboxamido)methyl)benzofuran-7-carboxylic acid] | 63 | 52
